The values below come from US20220389437A1, “METHODS OF IN PLANTA TRAN[…] AXILLARY MERISTEM” (SYNGENTA CROP PROTECTION AG, priority 2019, published 2022).

SMILES strings stand for the structures.

For the assay, the system named is non-transgenic plants (soybean seedlings), wounded axillary areas. As to the kind of experiment: Glyphosate top selection dose finding: suppression of axillary meristem regeneration. As to conditions: 10, 25, 50, 75, 100 or 200 uM applied on the wounded axillary areas, non-lethal but sufficient to suppress regeneration within 2 weeks. The class given is in vivo. From the text: 1) Germination: Soybean seeds were sown in 2.5 inch pots, two seeds in each pot. 4-7 day old seedlings grown from the seeds were used for cotyledon axillary meristem transformation.
2) Wound axillary meristems: The axillary meristems located in the axil of cotyledons were completely removed. The stem cells located in the base of the axillary meristem were transformed using Agrobacterium as described below. To break the dormancy of the axillary meristem, the primary shoot meristem was removed at the same time, or 3-7 days' later.
5) Selection: To determine the glyphosate concentrations effectively suppressing axillary meristem regeneration in top selection, non-transgenic plants were used and 10 uM to 200 uM glyphosate (specifically 10, 25, 50, 75, 100, or 200 uM glyphosate) was applied on the wounded axillary areas.

For `O=C(O)CNCP(=O)(O)O` [glyphosate], the “glyphosate concentrations effectively suppressing axillary meristem regeneration in top selection” value fell in the range of 75 to 200 µM.
